The source of these data is PMC10077203, “Structure modification, antialgal, antiplasmodial, and toxic evaluations of a series of new marine-derived 14-membered resorcylic acid lactone derivatives” (Marine Life Science & Technology, 2021).

One series deals with C. socialis. Kind of series: Diatom growth inhibition assay (antialgal activity). In kind it is cell-based, Chaetoceros socialis. Conditions: Chaetoceros socialis, 48 h, chlorophyll a of attached microalgae, read-out: EC50 C. socialis. The protocol:
(§1) The antialgal activity against the microalgae P. tricornutum Bohlin, C. vulgaris, C. socialis, N. laevissima, and N. exigua was evaluated by the method of Ortlepp et al. ([2008]). Briefly, the microalgae were grown in sterilized BG11 medium under light intensity of 2500 lx and 12 h: 12 h light: dark cycle at temperature of 20 ℃. The microalgae were grown to reach the logarithmic phase (approximately 5 × 10^5 cells/ml), which were used for microalgae growth inhibition assay. The compounds 1–71 were first dissolved in a small amount of DMSO and then diluted with 0.22 μm of filtered seawater (FSW) to achieve a range of concentrations from 0.625 to 50 μg/ml. Ten microliters of the compound solution was added to multiwell Petri dishes containing a 1-mL suspension of the microalgae (approximately 12 × 10^4 cells/ml). FSW with DMSO was used as a negative control, and solutions of SeaNine 211 in seawater were used as positive controls. After the plates were incubated for 48 h (16 ± 1 ℃) under continuous light, the FSW with non-attached microalgae was removed. The amount of chlorophyll a in attached microalgae was determined with a spectrophotometer (Beckman, model DU650, USA). Then the EC50 (inhibits 50% of settlement of cyprids in comparison with the control) was calculated using the Probit software program.

The subject of the next series is C. vulgaris. The series is described as above. Format: cell-based, Chlorella vulgaris. Particulars: Chlorella vulgaris; 48 h, chlorophyll a of attached microalgae; read-out: EC50 C. vulgaris. Here is the method:
as §1

Another series concerns N. exigua. Described as above. In kind it is cell-based, Navicula exigua. Conditions: 48 h, chlorophyll a of attached microalgae, read-out: EC50 N. exigua. The protocol:
as §1

Another series concerns N. laevissima. The series is described as above. Format: cell-based, Navicula laevissima. Particulars: Sellaphora laevissima, 48 h, chlorophyll a of attached microalgae, read-out: EC50 N. laevissima. Here is the method: as §1
The subject of series [1] is P. tricornutum Bohlin, C. vulgaris, C. socialis, N. laevissima, and N. exigua. Kind of series: Diatom growth inhibition assay, whole panel. In kind it is cell-based. Conditions: Chlorella vulgaris; selective and moderate activities; read-out: EC50 antialgal, range over compounds and algae. The protocol: as §1
In a further series the test system is zebrafish embryos. Kind of series: Zebrafish embryo toxicity test. Particulars: for death of zebrafish embryos: 50 μmol/L, after 24 h; for survival of zebrafish embryos: 100 μmol/L, 52 h. Format: in vivo. The protocol:
Toxicity assays were carried out using the method of Wang et al. ([2011]). Briefly, the normal embryos were selected and transferred into a 24-well plate. The embryos at 1 h postfertilization (hpf) were exposed by immersion in E3 embryo medium containing the derivative in a 1% (v/v) DMSO final solvent concentration in a 24-well plate. The developmental phenotypes of the experimental status of the embryos were observed every 24 h for 72 h and were photographed with a charge-coupled device (CCD) camera.

The next series deals with P. tricornutum Bohlin. The experiment in a line: Diatom growth inhibition assay (antialgal activity). In kind it is cell-based, Phaeodactylum tricornutum Bohlin. Particulars: Phaeodactylum tricornutum, 48 h, chlorophyll a of attached microalgae, read-out: EC50 P. tricornutum. The protocol: as §1
The next series deals with Staphylococcus aureus. Kind of series: Antimicrobial assay (serial dilution, MIC). Format: cell-based. Particulars: 37 °C, 24 h, read-out: minimum inhibitory concentration (MIC) S. aureus. Here is the method: The antimicrobial activities were carried out by a serial dilution technique using 96-well microtiter plates (Pierce et al. [2008]). The derivatives were dissolved in DMSO to obtain a stock solution. Microbial species were cultured overnight at 37 °C in LB broth and diluted to 10^6 cfu/ml when used. LB broth was used as a blank control, and DMSO was used as a negative control, while ciprofloxacin was used as a positive control. The plates were incubated at 37 °C for 24 h.

Series [2] relates to chloroquine sensitive HB3 strain of P. falciparum. The experiment in a line: In vitro antiplasmodial assay (Pico-Green growth inhibition). In kind it is cell-based, Plasmodium falciparum. Conditions: for P. falciparum SI, Selectivity Index (CC50/IC50): CC50 HUVEC / IC50 P. falciparum; for IC50: Plasmodium falciparum, Erythrocyte, HB3 strain in human erythrocytes, read-out: P. falciparum IC50. The protocol: In vitro antiplasmodial activity was performed by culturing human erythrocytes and infecting them with P. falciparum, as reported by Trager and Jensen ([1976]). Briefly, the chloroquine sensitive HB3 strain of P. falciparum-infected O + erythrocytes was cultured in RPMI 1640 medium supplemented with 10% human serum (from O + blood) at a hematocrit of 2% erythrocytes at 37 °C with a gas mixture containing 90% N2, 5% CO2, and 5% O2. Parasites were synchronized with 5% D-sorbitol (Lambros and Vanderberg [1979]). P. falciparum growth inhibition bioassays were performed with the procedure as described by Corbett et al. ([2004]), which used Pico-Green, a double stranded-DNA fluorescent dye to test the effect of compounds.

Series [3] is described as follows: In vitro cytotoxicity (CC50). Format: cell-based. Conditions: human, HUVEC cells. An excerpt:
Toxicity is a major concern of drug discovery and development, and the selectivity index (SI) is used as the evaluation parameter of drug potential of the test samples by comparing the toxicity on a human cell line (CC50) and the selective inhibitory effect on P. falciparum (IC50) calculated here as CC50/IC50. We decided to evaluate in vitro cytotoxicity of the active derivatives 38, 39, 50, 52, 65, 67, 70, and 71 by determining their 50% cytotoxic concentrations. The results are presented in Table 3, presenting only those CC50 values > 100 μmol/L, reaching selectivity indexes > 10. The cytotoxic concentration at 150 μmol/L was not be determined because of a lack of solubility of the tested molecule in the culture medium. Moreover, the toxicity of these derivatives was also evaluated against two other cell lines: hepatocellular liver carcinoma cell line (Hep G2) and cervical carcinoma (HeLa), finding CC50 values > 100 μmol/L.

In series [4] the test system is larval settlement of the barnacle Balanus Amphitrite. Details: method as in Shao et al. [2011]. Conditions: ref Shao et al. [2011]; cited from earlier work.

Molecules are shown by their SMILES. Values after ≈ are worked out from the molar mass of the structure shown.

`COc1cc2c(c(OCc3ccc4ccccc4c3)c1)C(=O)OC(C)CC=CC(O)C(O)C(O)CC=C2` (stereo not drawn) [Compound 14]: the EC50 was 17.2 µM in the series with C. socialis; greater than 10 µM with C. vulgaris; 18.5 µM with N. exigua; 20.4 µM with N. laevissima; 11 to 32.5 µM in [1]; greater than 10 µM in the series with P. tricornutum Bohlin. The “death of zebrafish embryos” value in the series on zebrafish embryos is given as “all embryos died”.
Turning to `COc1cc2c(c(OCc3ccc(C(C)(C)C)cc3)c1)C(=O)OC(C)CC=CC(O)C(O)C(O)CC=C2` (stereo not drawn) [Compound 26], the MIC in the series on Staphylococcus aureus is 25 µM (≈ 12.8 µg/mL). Further, the EC50 in the series with C. socialis was 18.4 µM; in the series with C. vulgaris it was greater than 10 µM; in the series with N. exigua it was greater than 10 µM; in the series on N. laevissima, greater than 10 µM; in [1], 11 to 32.5 µM; in the series on P. tricornutum Bohlin, 25.7 µM. Besides, in the series with zebrafish embryos, the “death of zebrafish embryos” value is “all embryos died”.
On to `COc1cc2c(c(OCc3ccc(-c4ccccc4C#N)cc3)c1)C(=O)OC(C)CC=CC1OC(C)(C)OC1C(O)CC=C2` (stereo not drawn) [Compound 38], for which, in series [2], the “P. falciparum SI, Selectivity Index (CC50/IC50)” value is greater than 12 and the IC50 was 8.06 µM. For the same molecule, the 50% cytotoxic concentration (CC50) in series [3] is greater than 100 µM. The “survival of zebrafish embryos” value in the series with zebrafish embryos is reported as “All embryos survived”.
As to `COC(=O)c1ccccc1-c1ccc(COc2cc(OC)cc3c2C(=O)OC(C)CC=CC2OC(C)(C)OC2C(O)CC=C3)cc1` (stereo not drawn) [Compound 39], in series [2], the “P. falciparum SI, Selectivity Index (CC50/IC50)” value is greater than 14 and the 50% inhibitory concentration (IC50) stood at 6.69 µM. For the same molecule, the CC50 in series [3] is greater than 100 µM. Further, the “survival of zebrafish embryos” value in the series with zebrafish embryos is on record as “All embryos survived”.
Regarding `[2H]C([2H])([2H])C1(C([2H])([2H])[2H])OC2C=CCC(C)OC(=O)c3c(cc(OC)cc3OCc3ccc(-c4ccccc4C(=O)OC)cc3)C=CCC(O)C2O1` (stereo not drawn) [Compound 67], in [2], the “P. falciparum SI, Selectivity Index (CC50/IC50)” value is given as greater than 13 and the IC50 worked out at 7.25 µM. Also, the CC50 in [3] is greater than 100 µM.
On to `CCC(=O)Oc1cc(OC)c(Cl)c2c1C(=O)OC(C)CC=CC(OC(=O)CC)C(OC(=O)CC)C(OC(=O)CC)CC=C2` (stereo not drawn) [Compound 70], for which, in series [2], the “P. falciparum SI, Selectivity Index (CC50/IC50)” value is on record as greater than 14 and the IC50 is 6.91 µM. In addition, in [3], the CC50 is greater than 100 µM.
In the case of `COc1cc(OC(=O)C(C)(C)C)c2c(c1Cl)C=CCC(OC(=O)C(C)(C)C)C(O)C(OC(=O)C(C)(C)C)C=CCC(C)OC2=O` (stereo not drawn) [Compound 71], in series [2], the “P. falciparum SI, Selectivity Index (CC50/IC50)” value is greater than 28 and the IC50 worked out at 3.54 µM. In series [3], this molecule gave a CC50 greater than 100 µM.
Take `COc1cc(O)c2c(c1)/C=C/C[C@H](O)[C@@H]1OC(C)(C)O[C@H]1C=CC[C@H](C)OC2=O` [cochliomycin A]: the “concentration of significant antifouling activity against larval settlement” value in series [4] was 1.2 µg/mL.
